Assay results reported in doi:10.1101/2021.10.07.463234v2 (biorxiv, 2021).
Counter-ions that a name gives are not always drawn. Bridge positions count the residues as written; N and C are the ends. Square brackets hold non-standard residues; d marks the D form. Peptide text beside a SMILES is read from it. * marks the point of attachment. Ileψ(thiazoline)Cys = CC[C@H](C)[C@H](N)C1=N[C@H](C(=O)*)CS1; dOrn = NCCC[C@@H](N)C(=O)O

Target: SARS-CoV-2 Mac1 (Severe acute respiratory syndrome coronavirus 2, UniProt P0DTD1)
Assay: biochemical
Conditions: for inhibition at 100 µM: read-out: %inhibition; for %inhibition: 100 µM, inhibitor

| Compound | inhibition at 100 µM [%] | %inhibition [%] |
| --- | --- | --- |
| CN1C(C(=O)Nc2ccccn2)=C(O)c2ccccc2S1(=O)=O [Piroxicam] | 38 | – |
| C/C(=C\c1csc(C)n1)[C@@H]1C[C@@H]2O[C@]2(C)CCC[C@H](C)[C@H](O)[C@@H](C)C(=O)C(C)(C)[C@@H](O)CC(=O)O1 [Patupilone (EPO906, Epothilone B)] | 19.2 | – |
| O[C@@H](c1cc(C(F)(F)F)nc2c(C(F)(F)F)cccc12)[C@H]1CCCCN1 [Mefloquine HCl] | 0 | – |
| CCN(CC)CCOC(=O)C(O)(c1ccccc1)c1ccccc1 [Benactyzine hydrochloride] | 0 | – |
| O=C(O)CCCC[C@@H]1CCSS1 (racemic) [Thioctic acid] | 22.2 | – |
| CCCCCC(=O)O[C@]1(C(C)=O)CC[C@H]2[C@@H]3CCC4=CC(=O)CC[C@]4(C)[C@H]3CC[C@@]21C [Hydroxyprogesterone caproate] | 8.48 | – |
| CC[N+](CC)(CC)CCOc1cccc(OCC[N+](CC)(CC)CC)c1OCC[N+](CC)(CC)CC [Gallamine Triethiodide] | 3.8 | – |
| COc1ccc(-c2cc(=O)c3c(O)cc(O[C@@H]4O[C@H](CO[C@@H]5O[C@@H](C)[C@H](O)[C@@H](O)[C@H]5O)[C@@H](O)[C@H](O)[C@H]4O)cc3o2)cc1O [Diosmin] | 11.9 | – |
| CC[C@H]1CN2CC[C@H]1C[C@@H]2[C@@H](O)c1ccnc2ccc(OC)cc12 [Hydroquinidine] | 4.48 | – |
| N[C@@H](Cc1ccc(N(CCCl)CCCl)cc1)C(=O)O [Melphalan] | 3.44 | – |
| Nc1ccc(S(=O)(=O)Nc2ccccn2)cc1 [Sulfapyridine] | 10.7 | – |
| CC[C@H]1OC(=O)[C@H](C)[C@@H](O[C@H]2C[C@@](C)(OC)[C@@H](O)[C@H](C)O2)[C@H](C)[C@@H](O[C@@H]2O[C@H](C)C[C@H](N(C)C)[C@H]2O)[C@](C)(O)C[C@@H](C)[C@@H]2N[C@@H](COCCOC)O[C@H]([C@H]2C)[C@]1(C)O [Dirithromycin] | 28.8 | – |
| CN(C)[C@@H]1C(=O)C(C(N)=O)=C(O)[C@@]2(O)C(=O)C3=C(O)c4c(O)cccc4[C@@](C)(O)[C@H]3C[C@@H]12 [Tetracycline HCl] | 22.7 | – |
| CNNCc1ccc(C(=O)NC(C)C)cc1 [Procarbazine HCl] | 0 | – |
| CC[N+](C)(CC)CCOC(=O)C(O)(c1ccccc1)c1ccccc1 [Methylbenactyzine Bromide] | 9.38 | – |
| CC[C@H](C)[C@H](N)C1=N[C@H](C(=O)N[C@@H](CC(C)C)C(=O)N[C@H](CCC(=O)O)C(=O)N[C@H](C(=O)N[C@H]2CCCCNC(=O)[C@H](CC(N)=O)NC(=O)[C@@H](CC(=O)O)NC(=O)[C@H](Cc3cnc[nH]3)NC(=O)[C@@H](Cc3ccccc3)NC(=O)[C@H]([C@@H](C)CC)NC(=O)[C@@H](CCCN)NC2=O)[C@@H](C)CC)CS1 [Bacitracin] ({Ileψ(thiazoline)Cys}-L[dE]IK[dOrn]I[dF]H[dD]N; lactam 4-C) | 0 | – |
| CCCCOc1cc(C(=O)NCCN(CC)CC)c2ccccc2n1 [Cinchocaine] | 0 | – |
| COC(=O)N[C@H](C(=O)N[C@@H](Cc1ccccc1)[C@@H](O)CN(Cc1ccc(-c2ccccn2)cc1)NC(=O)[C@@H](NC(=O)OC)C(C)(C)C)C(C)(C)C [Atazanavir Sulfate] | 0 | – |
| CCCCOC(=O)c1ccccc1Nc1cccc(C(F)(F)F)c1 [Ufenamate] | 7.76 | – |
| CC(C)(C)c1nc(-c2cccc(NS(=O)(=O)c3c(F)cccc3F)c2F)c(-c2ccnc(N)n2)s1 [Dabrafenib Mesylate] | – | 0.5368 |
| O=C(/C=C/C=C/c1ccc2c(c1)OCO2)N1CCCCC1 [Piperine] | 0 | – |
| OCCN1CCN(CC/C=C2/c3ccccc3Sc3ccc(C(F)(F)F)cc32)CC1 [Flupenthixol dihydrochloride] | 12.3 | – |
| C#C[C@]1(O)CC[C@H]2[C@@H]3CCc4cc(OC5CCCC5)ccc4[C@H]3CC[C@@]21C [Quinestrol] | 0 | – |

| Compound | inhibition at 100 µM [%] | %inhibition [%] |
| --- | --- | --- |
| O=C(/C=C\n1cnc(-c2cc(C(F)(F)F)cc(C(F)(F)F)c2)n1)NNc1cnccn1 [Selinexor (KPT-330)] | 0 | – |
| OCCN(CCO)c1nc(N2CCCCC2)c2nc(N(CCO)CCO)nc(N3CCCCC3)c2n1 [Dipyridamole] | 26.7 | – |
| CC1(C)S[C@@H]2[C@H](NC(=O)Cc3ccccc3)C(=O)N2[C@H]1C(=O)O [Benzylpenicillin potassium] | – | 8.229 |
| Cc1ccc(Nc2nccc(N(C)c3ccc4c(C)n(C)nc4c3)n2)cc1S(N)(=O)=O [Pazopanib] | – | 12.94 |
| Cc1cnc(C(=O)NCCc2ccc(S(=O)(=O)NC(=O)NC3CCCCC3)cc2)cn1 [Glipizide] | 19.9 | – |
| COc1ccccc1OCC(O)CO (centres unmarked) [Guaifenesin] | 33.3 | – |
| COc1cc2c(Oc3ccc4[nH]c(C)cc4c3F)ncnc2cc1OCCCN1CCCC1 [Cediranib (AZD2171)] | 51.1 | – |
| C[C@]12CC[C@@H]3c4ccc(O)cc4CC[C@H]3[C@@H]1CC[C@@H]2OC(=O)CCC1CCCC1 [Estradiol Cypionate] | 0 | – |
| NS(=O)(=O)c1cc(C2(O)NC(=O)c3ccccc32)ccc1Cl (centres unmarked) [Chlorthalidone] | 1.46 | – |
| O=S(=O)(O)CCCS(=O)(=O)O [Eprodisate disodium] | 0 | – |
| CCCCCCCCC(=O)NCc1ccc(O)c(OC)c1 [Nonivamide] | 1.16 | – |
| CCNC(=O)[C@@H]1CCCN1C(=O)[C@H](CCCNC(=N)N)NC(=O)[C@H](CC(C)C)NC(=O)[C@@H](CC(C)C)NC(=O)[C@H](Cc1ccc(O)cc1)NC(=O)[C@H](CO)NC(=O)[C@H](Cc1c[nH]c2ccccc12)NC(=O)[C@H](Cc1c[nH]cn1)NC(=O)[C@@H]1CCC(=O)N1 [Leuprolide Acetate] | 13.2 | – |
| O=C1CCC(N2C(=O)c3ccccc3C2=O)C(=O)N1 (centres unmarked) [Thalidomide] | 14 | – |
| CN1CCN(C(c2ccccc2)c2ccccc2)CC1 [Cyclizine 2HCl] | 9.76 | – |
| CN1CCC(=C2c3ccccc3CCc3cccnc32)CC1 [Azatadine dimaleate] | 0 | – |
| CCN1CCC[C@H]1CNC(=O)c1cc(S(N)(=O)=O)ccc1OC [Levosulpiride] | 0 | – |
| NCC[C@H](O)C(=O)N[C@@H]1C[C@H](N)[C@@H](O[C@H]2O[C@H](CN)[C@@H](O)[C@H](O)[C@H]2O)[C@H](O)[C@H]1O[C@H]1O[C@H](CO)[C@@H](O)[C@H](N)[C@H]1O [Amikacin disulfate] | 0 | – |
| CN(C)CCC=C1c2ccccc2C=Cc2ccccc21 [Cyclobenzaprine HCl] | 3.24 | – |
| NS(=O)(=O)c1ccc(C(=O)O)cc1 [Carzenide] | 0 | – |
| O=C1[C@H](CC[C@H](O)c2ccc(F)cc2)[C@@H](c2ccc(O)cc2)N1c1ccc(F)cc1 [Ezetimibe] | 5.79 | – |
| C#CC1(O)CC[C@H]2[C@@H]3CCC4=CC(=O)CC[C@@H]4[C@H]3CC[C@@]21CC (some centres unmarked) [Norgestrel] | 0 | – |
| COc1ccc(-c2nc3cc(C4=NNC(=O)CC4C)ccc3[nH]2)cc1 (centres unmarked) [Pimobendan] | 13 | – |
| CCC1(c2cccc(O)c2)CCCCN(C)C1 (centres unmarked) [Meptazinol HCl] | 0 | – |

| Compound | inhibition at 100 µM [%] | %inhibition [%] |
| --- | --- | --- |
| O=C(CCCCCCC(=O)Nc1ccccc1)NO [Vorinostat (SAHA, MK0683)] | 0 | – |
| C[N+]1(C)[C@@H]2C[C@@H](OC(=O)C(O)(c3cccs3)c3cccs3)C[C@H]1[C@@H]1O[C@@H]12 [Tiotropium Bromide hydrate] | 19.5 | – |
| Cc1cc(Nc2cc(N3CCN(C)CC3)nc(Sc3ccc(NC(=O)C4CC4)cc3)n2)n[nH]1 [Tozasertib (VX-680, MK-0457)] | 33.2 | – |
| CCOC(=O)[C@H](CCc1ccccc1)N[C@@H](C)C(=O)N1CCC[C@H]1C(=O)O [Enalapril Maleate] | 16.8 | – |
| CC(C)(C)c1ccc(C(O)CCCN2CCC(C(O)(c3ccccc3)c3ccccc3)CC2)cc1 (centres unmarked) [Terfenadine] | 11 | – |
| N=C(N)c1ccc(OCCCCCOc2ccc(C(=N)N)cc2)cc1 [Pentamidine isethionate] | 0 | – |
| Nc1ccccc1NC(=O)c1ccc(CNC(=O)OCc2cccnc2)cc1 [Entinostat (MS-275)] | 33.3 | – |
| CC[C@H](c1ccc(O)cc1)[C@@H](CC)c1ccc(O)cc1 [Hexestrol] | 0 | – |
| Cc1c(OCC(F)(F)F)ccnc1C[S@@+]([O-])c1nc2ccccc2[nH]1 [Dexlansoprazole] | 13.9 | – |
| CN(C)[C@@H]1C(=O)C(C(N)=O)=C(O)[C@@]2(O)C(=O)C3=C(O)c4c(O)cccc4[C@@](C)(O)C3[C@H](O)C12 (some centres unmarked) [Oxytetracycline (Terramycin)] | 15.9 | – |
| CCCN1C[C@H](CSC)C[C@@H]2c3cccc4[nH]cc(c34)C[C@H]21 [Pergolide Mesylate] | 7.58 | – |
| COc1ccc(C[C@@H]2c3cc(OC)c(OC)cc3CC[N@+]2(C)CCC(=O)OCCCCCOC(=O)CC[N@@+]2(C)CCc3cc(OC)c(OC)cc3[C@H]2Cc2ccc(OC)c(OC)c2)cc1OC [Atracurium Besylate] | – | 4.976 |
| CCN1CCCC1CNC(=O)c1cc(S(N)(=O)=O)ccc1OC (centres unmarked) [Sulpiride] | 0 | – |
| O=C(O)[C@H](O)[C@@H](O)[C@H](O)[C@H](O)CO [Calcium gluconate] | 0 | – |
| Cc1cccc(C)c1NC(=O)CN1CCCC1=O [Nefiracetam] | 8.32 | – |
| CC(C)c1c(C(=O)Nc2ccccc2)c(-c2ccccc2)c(-c2ccc(F)cc2)n1CC[C@@H](O)C[C@@H](O)CC(=O)O [Atorvastatin Calcium] | 0 | – |
| CC(=O)NS(=O)(=O)c1ccc(NC(=O)c2ccccc2C(=O)O)cc1 [Phthalylsulfacetamide] | 6.67 | – |
| CCCc1ncc(C[n+]2ccccc2C)c(N)n1 [Amprolium HCl] | 0 | – |
| CCOc1cc(CC(=O)N[C@@H](CC(C)C)c2ccccc2N2CCCCC2)ccc1C(=O)O [Repaglinide] | 0 | – |
| CS(=O)(=O)n1cc2c(n1)CN([C@H]1CO[C@H](c3cc(F)ccc3F)[C@@H](N)C1)C2 [Omarigliptin (MK-3102)] | 0 | – |
| NCCC[C@H](N)C(=O)O [L-Ornithine] | 0 | – |
| C#C[C@]1(O)CC[C@H]2[C@@H]3CCc4cc(O)ccc4[C@H]3CC[C@@]21C [Ethinyl Estradiol] | 0 | – |
